Paper PMC7053825 (European journal of medicinal chemistry, 2020)

Key:
HIV-1 NL4-3 virus = assay: In vitro anti-HIV assay in TZM-bl cells; assay type: cell-based
in vitro = conditions: human, microsomes
[1] = Human plasma stability assay; assay type: in vitro ADME
[2] = test system: NL4-3 Env pseudo-typed HIV-I virus; assay: ELISA-based quantification of capsid; assay type: cell-based, HIV-1; conditions: 10 μM compound, compared to the DMSO control
[3] = molecular target: HIV-1NL4-3 capsid protein (CA hexamer); assay: SPR binding to CA hexamer; conditions: hexamer versus monomer
HIV-1 CA = HIV-1 CA (Human immunodeficiency virus type 1 group M subtype B, UniProt P12493); assay: In vitro capsid assembly assay; assay type: biochemical; conditions: capsid 30 μM, compound 50 μM, 3M NaCl, compared to DMSO control

Compound: COc1ccc(C(=O)Nc2ccccc2-c2cn(CC(=O)N[C@@H](Cc3ccccc3)C(=O)N(C)c3ccc(OC)cc3)nn2)cc1 [6a-6, (S)-4-methoxy-N-(2-(1-(2-((1-((4-methoxyphenyl)(methyl)amino)-1-oxo-3-phenylpropan-2-yl)amino)-2-oxoethyl)-1H-1,2,3-triazol-4-yl)phenyl)benzamide]
- EC50 (HIV-1 NL4-3 virus; Human immunodeficiency virus 1, NL43, TZM-bl): > 16.2 µM

Compound: C[C@]12CC[C@H]3[C@@H](CCC4=CC(=O)CC[C@@]43C)[C@@H]1CC[C@@H]2O [Testosterone]
- CLint scaled at 1 h (in vitro): 169 mL/min/kg
- Remaining (T=60min) (HLM 0.5 mg protein/mL): 3.6%
- Remaining (NCF=60min) (HLM, no cofactor (no NADPH regenerating system)): 74.4%

Compound: COc1ccc(N(C)C(=O)[C@H](Cc2ccccc2)NC(=O)Cn2cc(-c3cccc(NC(=O)c4cccc(F)c4)c3)nn2)cc1 [6b-10, (S)-3-fluoro-N-(3-(1-(2-((1-((4-methoxyphenyl)(methyl)amino)-1-oxo-3-phenylpropan-2-yl)amino)-2-oxoethyl)-1H-1,2,3-triazol-4-yl)phenyl)benzamide]
- fold better active (HIV-1 NL4-3 virus; EC50 with respect to 6b-2): 1.3 fold

Compound: COc1ccc(N(C)C(=O)[C@H](Cc2ccccc2)NC(=O)Cn2cc(-c3ccccc3NC(=O)c3cccc(OC)c3)nn2)cc1 [6a-5, (S)-3-methoxy-N-(2-(1-(2-((1-((4-methoxyphenyl)(methyl)amino)-1-oxo-3-phenylpropan-2-yl)amino)-2-oxoethyl)-1H-1,2,3-triazol-4-yl)phenyl)benzamide]
- fold decrease in antiviral activity (HIV-1 NL4-3 virus; EC50 relative to 6a-2): 3.4 fold

Compound: COc1ccc(N(C)C(=O)[C@H](Cc2ccccc2)NC(=O)Cn2cc(-c3ccccc3NC(=O)c3ccccc3F)nn2)cc1 [6a-9, (S)-2-fluoro-N-(2-(1-(2-((1-((4-methoxyphenyl)(methyl)amino)-1-oxo-3-phenylpropan-2-yl)amino)-2-oxoethyl)-1H-1,2,3-triazol-4-yl)phenyl)benzamide]
- remaining at 0 h [1]: 100%
- reduction of p24 of the produced virus [2]: about 15%
- CLint scaled at 1 h (in vitro): 1400 mL/min/kg
- difference in KD values for hexameric and monomeric CA [3]: no significant differences

Compound: CC(C)[N+](C)(CCOC(=O)C1c2ccccc2Oc2ccccc21)C(C)C [Propantheline bromide, reference compound]
- remaining at 0 h [1]: 100%

Compound: Cc1[nH]c2ccccc2c1CC(=O)N[C@@H](Cc1ccccc1)C(=O)N(C)c1ccccc1 [PF-74]
- effect on in vitro assembly of HIV-1 CA (HIV-1 CA): accelerated the assembly of HIV-1 CA
- CLint scaled at 1 h (in vitro): 2160 mL/min/kg

Compound: COc1ccc(N(C)C(=O)[C@H](Cc2ccccc2)NC(=O)Cn2cc(-c3ccccc3NC(=O)c3cccc(F)c3)nn2)cc1 [6a-10, (S)-3-fluoro-N-(2-(1-(2-((1-((4-methoxyphenyl)(methyl)amino)-1-oxo-3-phenylpropan-2-yl)amino)-2-oxoethyl)-1H-1,2,3-triazol-4-yl)phenyl)benzamide]
- difference in KD values for hexameric and monomeric CA [3]: no significant differences

Compound: COc1ccc(N(C)C(=O)[C@H](Cc2ccccc2)NC(=O)Cn2cc(-c3cccc(NC(C)=O)c3)nn2)cc1 [6b-1, (S)-2-(2-(4-(3-acetamidophenyl)-1H-1,2,3-triazol-1-yl)acetamido)-N-(4-methoxyphenyl)-N-methyl-3-phenylpropanamide]
- fold decrease in antiviral activity (HIV-1 NL4-3 virus; EC50 relative to 5b): 4.5 fold

Compound: COc1ccc(N(C)C(=O)[C@H](Cc2ccccc2)NC(=O)Cn2cc(-c3cccc(NC(=O)c4ccccc4)c3)nn2)cc1 [6b-2, (S)-N-(3-(1-(2-((1-((4-methoxyphenyl)(methyl)amino)-1-oxo-3-phenylpropan-2-yl)amino)-2-oxoethyl)-1H-1,2,3-triazol-4-yl)phenyl)benzamide]
- fold decrease in antiviral activity (HIV-1 NL4-3 virus; EC50 relative to 5b): 3.9 fold

Compound: COc1ccc(N(C)C(=O)[C@H](Cc2ccccc2)NC(=O)Cn2cc(-c3ccccc3NC(=O)c3ccccc3OC)nn2)cc1 [6a-4, (S)-2-methoxy-N-(2-(1-(2-((1-((4-methoxyphenyl)(methyl)amino)-1-oxo-3-phenylpropan-2-yl)amino)-2-oxoethyl)-1H-1,2,3-triazol-4-yl)phenyl)benzamide]
- fold decrease in antiviral activity (HIV-1 NL4-3 virus; EC50 relative to 6a-2): 2.2 fold
